From EP0092173A1, “11-Beta-chlorosteroids, process for their preparation and pharmaceutical compositions containing them” (SCHERING AKTIENGESELLSCHAFT, priority 1982, dated 1983)

Columns and labels:
[1] = tested on: infantilen weiblichen Kaninchen; test: Clauberg test for progestational (gestagenic) activity after oral administration; type: in vivo; details: for McPhail: infantile female rabbits; for Schwellendosis (McPhail 1,5) für die gestagene Wirkung: minimum amount for a positive effect (McPhail 1,5)
Description: Die gestagene Wirkung wurde im üblichen Clauberg-Test nach oraler Applikation an infantilen weiblichen Kaninchen ermittelt.
Die zur Erzielung eines positiven Effekts benötigte Mindestmenge wird durch den McPhail-Wert 1,5 ausgedrückt.
In der folgenden Tabelle werden die Ergebnisse des Tests zusmmengestellt.

[2] = target: Androgen-Rezeptor (Homo sapiens, UniProt P10275); test: Androgen receptor test (competition factor); type: binding; details: assessment in words, based on the competition factor
Sequence of Androgen-Rezeptor (P10275 whole entry): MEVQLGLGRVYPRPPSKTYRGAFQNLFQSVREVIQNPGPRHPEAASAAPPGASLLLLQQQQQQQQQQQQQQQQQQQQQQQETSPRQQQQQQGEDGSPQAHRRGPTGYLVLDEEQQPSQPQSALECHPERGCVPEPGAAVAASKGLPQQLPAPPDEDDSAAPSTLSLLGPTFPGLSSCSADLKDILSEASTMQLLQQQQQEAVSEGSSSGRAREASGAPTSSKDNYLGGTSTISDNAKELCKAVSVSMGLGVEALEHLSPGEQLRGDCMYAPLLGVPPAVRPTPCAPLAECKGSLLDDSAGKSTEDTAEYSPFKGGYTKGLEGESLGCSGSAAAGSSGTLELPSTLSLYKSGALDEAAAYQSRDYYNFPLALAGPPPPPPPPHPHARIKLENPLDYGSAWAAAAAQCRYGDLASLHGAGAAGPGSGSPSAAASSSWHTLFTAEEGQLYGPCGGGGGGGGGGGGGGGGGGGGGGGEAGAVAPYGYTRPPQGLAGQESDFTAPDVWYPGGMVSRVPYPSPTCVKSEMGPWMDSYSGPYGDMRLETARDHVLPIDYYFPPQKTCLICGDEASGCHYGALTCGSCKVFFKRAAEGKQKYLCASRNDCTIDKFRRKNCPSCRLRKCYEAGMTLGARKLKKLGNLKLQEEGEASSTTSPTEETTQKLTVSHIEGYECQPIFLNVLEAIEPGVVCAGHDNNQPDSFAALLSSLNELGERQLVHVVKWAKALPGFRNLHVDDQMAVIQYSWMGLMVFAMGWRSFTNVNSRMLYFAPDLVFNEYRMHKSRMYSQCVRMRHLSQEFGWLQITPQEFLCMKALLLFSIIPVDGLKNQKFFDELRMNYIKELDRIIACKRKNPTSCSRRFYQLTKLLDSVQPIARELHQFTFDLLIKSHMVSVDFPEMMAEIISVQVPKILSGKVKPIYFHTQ

SMILES | McPhail ([1]; Dosis 0,01 mg) | McPhail ([1]; Dosis 0,1 mg) | McPhail ([1]; Dosis 0,03 mg) | McPhail ([1]; Dosis 0,003 mg) | Schwellendosis (McPhail 1,5) für die gestagene Wirkung [1] | androgene Nebenwirkung [2]
CC[C@]12C[C@H](Cl)[C@H]3[C@@H](CCC4=CC(=O)CC[C@@H]43)[C@@H]1CC[C@@]2(O)C#CCl [Verbindung A, 11ß-Chlor-17α-chlorethinyl-17ß-hydroxy-18-methyl-4-östren-3-on] | 1,9 | 3,3 | 3,0 | 1,2 | ~0,003 mg | nur eine ganz geringfügige androgene Nebenwirkung
C#C[C@]1(O)CC[C@H]2[C@@H]3CCC4=CC(=O)CC[C@@H]4[C@H]3[C@@H](Cl)C[C@@]21CC [Verbindung B, 11ß-Chlor-17α-ethinyl-17ß-hydroxy-18-methyl-4-östren-3-on, reference compound] | 1,4 |  | 2,5 | 1,1 | ~0,01 mg | noch schwach androgen wirksam
